Laboratory results published in patent US20150072391A1, “ETHANOL PRODUCTION IN ENGINEERED YEAST” (Massachusetts Institute of Technology, priority 2013, published 2015).
Like-named read-outs stand apart in the source and are kept apart here.

Experiments:
yeast = experiment: Fermentation in synthetic media with cellulosic hydrolysate inhibitors; type: cell-based
Protocol: To determine whether elevated K^+ and pH can overcome the toxicity in acid hydrolysates of cellulosic biomass, fermentation experiments were performed using synthetic lab media supplemented with the known major inhibitors (e.g., acetic acid, furfural and hydroxymethylfurfural (HMF)).
All concentrations were then increased by a factor of four to 120 mM (FIG. 23B), far above what has been reported in any hydrolysate. […] Raising K^+ and pH then boosted production by another 54%.

[1] = system: laboratory strain (S288C); type: cell-based, Saccharomyces cerevisiae; settings: for effect on ethanol output among additives screened: additives to 1×YSC, 300 g/L glucose (FIG. 7)
Protocol: (§1) To explore how ionic composition of the culture medium affects ethanol performance, chemically defined conditions were necessary which precluded, in some instances, the use of rich formulas such as yeast extract-peptone-dextrose (YEPD) medium or those containing corn steep liquor. […] After the addition of a carbon source and any ionic supplements, all medium were adjusted to pH 3.8 (i.e., the equilibrium pH from the addition of 50 mM K—Pi to 1×YSC), if necessary, using KOH, typically requiring <400 μM. Cultures were incubated at 30° C.: flask cultures (>25 mL) were agitated on a platform shaker at 200 RPM and smaller cultures in glass tubes on a roller drum at the maximum rotational setting.
(§2) Pre-fermentation cultures were grown until saturation and their cell densities determined by absorbance at 600 nm of an appropriate dilution made using fresh medium. Equalized quantities of biomass (e.g., ≧200 OD600 units) were harvested by centrifugation and re-suspended in ˜10 mL of fermentation medium to yield a cell density of OD600≧20. In addition to the target high sugar concentration (e.g., 300 g/L glucose), the fermentation medium optionally contained the supplements under study (e.g., 50 mM K—Pi) and were the first time cells were exposed to modified ionic conditions.
(§3) Fermentations were conducted micro-aerobically: tube-based cultures had at least an equal volume of headspace and were capped snugly with snap-on plastic tops but not sealed with Parafilm. Samples were taken every ˜24 h over the course of 1-4 d; for simplicity, however, several figures display bar graphs of steady state or near steady state ethanol titers (e.g., FIGS. 5A-D). Typically, 16-20 μL were removed and diluted appropriately for measurement of cell density at OD600, another 20 μL for quantification of cell viability by methylene blue staining (see below), and a final 0.5 mL pelleted and the supernatant saved for determination of ethanol concentration.
Ethanol concentrations were determined using one of the following two methods; for consistency, however, all samples deriving from a single experiment were assayed exclusively using one method. […] Absorbances of NADH at 340 nm were blanked against a reaction with ddH2O, measured using an Ultrospec 2100 pro UV/Visible spectrophotometer (GE Healthcare Life Sciences), and normalized against the absorbance of the control solution (“bottle 4”) to determine ethanol concentrations.
To determine final concentrations, peak areas auto-determined by the Agilent Chemstation for LC software were interpolated off a standard curve consisting of 0-20% ethanol (by volume) prepared in 1×YSC medium.
Images were recorded using a SPOT Insight 2 MP Firewire color camera with SPOT 5.0 software, and analyzed offline.
For each image, the number of unstained (clear) cells was quantified along with the total number (clear+stained) of cells, and the fraction of live cells determined by taking the quotient of the two. Fractions of viable cells were determined for 3-4 images per sample and used to calculate error statistics for the technical replicates (e.g., FIGS. 2A, 2B, 8A). Mean OD600 absorbance values were multiplied by their respective mean viable fractions to arrive at the underlying viable population in OD600 units (e.g., FIG. 1B, 3B).
To calculate ethanol productivities per viable cell, rates of increase in ethanol titer were normalized by the average viable OD600 during the corresponding period (FIG. 1A): […]

Strain BY4743 = experiment: Intracellular pH by ratiometric pHluorin after ethanol shock; type: cell-based, Saccharomyces cerevisiae; settings: for counteraction of the ethanol-mediated pH drop: supplementation of medium
Protocol: Strain BY4743 (WT) was transformed with p416TEF-pHluorin and grown overnight in 1×YSC-URA containing 200 g/L glucose and any indicated supplements. Equal amounts of yeast biomass were washed and transferred into respective fresh medium containing the indicated concentrations of ethanol, incubated at room temperature for 30 min, and measured for fluorescence emission. The ratio of intensities emitted from excitation at 395 nm and 475 nm ([…]) is directly proportional to pH.
To assess pHi, fluorescence intensities from strains carrying a centromeric plasmid expressing ratiometric pHluorin (LAMy178) or empty vector (LAMy96) were measured in a Tecan Safire^2™ microplate reader using excitation wavelengths of 395 nm and 475 nm, and common emission wavelength of 508 nm. Samples, all normalized for cell density, of 140 μL were aliquoted in duplicate to a 96-well black-walled, clear-bottom plate (Costar #3631), and the readings of the replicates averaged. Autofluorescence was removed by subtracting measurements of LAMy96 from LAMy178, both treated under identical conditions. The ratio of the intensities emitted by excitation at 395 nm to that by excitation at 475 nm is directly proportional to pHi; ratios in the 0.5-1.2 range roughly correspond to pH values of ˜5.5-7 (Orij, R., et al. Microbiology (Reading, Engl) 155, 268-278 (2009)).

strain FY4/5 (S288C) = type: cell-based, Saccharomyces cerevisiae
S288C = settings: YP diluted to 20%
Protocol: as §1

[2] = system: S288C, PE-2, Ethanol Red, Kyokai 7; experiment: Glucose fermentation of laboratory and industrial yeast strains; type: cell-based, Saccharomyces cerevisiae; settings: K—Pi supplementation, laboratory prototroph and auxotroph and industrial strains
Protocol: as §2, §3

H131-A3-AL^CS = experiment: High cell density xylose fermentation; type: cell-based, Saccharomyces cerevisiae; settings: K—Pi supplementation, 100 g/L xylose
Protocol: Furthermore, altering the medium to augment membrane gradients enhanced ethanol production not only from glucose, but from xylose, an abundant carbon source from lignocellulosic feedstocks that cannot be metabolized by unmodified S. cerevisiae^23. Therefore K—Pi supplementation was tested on H131-A3-AL^CS, a strain incorporating the Piromyces XYLA isomerase and P. stipitis XYL3 xylulokinase, and optimized to consume xylose^24. In high cell density, high xylose-only (100 g/L) fermentations, increases of ˜70% in both ethanol titer and productivity were found (FIG. 5D). […]
To build yeast biomass and osmotically adapt cells for high cell density and high sugar fermentations, starter cultures consisting of the unmodified base medium (i.e., 1×YSC or YSC-URA) and ˜0.3× the target fermentation sugar concentration (e.g., 100 g/L glucose) were grown until saturation, pelleted by centrifugation, and the entire cell mass used to inoculate a second “pre-fermentation” culture containing ˜0.5-0.6× the target sugar concentration (e.g., 150 g/L glucose). Pre-fermentation cultures were grown until saturation and their cell densities determined by absorbance at 600 nm of an appropriate dilution made using fresh medium. Equalized quantities of biomass (e.g., ≧200 OD600 units) were harvested by centrifugation and re-suspended in ˜10 mL of fermentation medium to yield a cell density of OD600≧20. […]

[3] = low viscosity CMC; cited from earlier work
[4] = cited from earlier work; for Specific activity: on PNPC

**Q.** Which “inhibition compared to the unsupplemented control” value (yeast; 120 mM) does the source give for `O=Cc1ccc(CO)o1` [HMF, hydroxymethylfurfural] here?
**A.** 10%

**Q.** Which “effect on ethanol output among additives screened” value [1] does the source give for `[Cl-].[K+]` [KCl, potassium chloride] here?
**A.** largest enhancement within the panel of chloride salts tested

**Q.** What about the “effect on ethanol output and viability during fermentation” value ([1]; varied amount of KCl (10-75 mM) in synthetic medium) of the same molecule?
**A.** dose-dependent improvements

**Q.** What about the “counteraction of the ethanol-mediated pH drop” value (Strain BY4743) of the same molecule?
**A.** not capable of counteracting

**Q.** What about the “viability after isobutanol shock” value (strain FY4/5 (S288C); 5 g/L glucose, additional KCl alone) of the same molecule?
**A.** insufficient to improve viability

**Q.** What does the source list for `[K+]` [K^+]?
**A.** enhancement of ethanol output (S288C; addition of K+, pH 6, SD): 17±2.5%; restoration of ethanol titers (S288C; pH 3.7, addition of K+): 47±2.5%; ethanol titer (S288C; pH 3.7, addition of K+, SD): 109 ± 1.8 g/L; resistance to isobutanol (strain FY4/5 (S288C); 5 g/L glucose, K+ supplementation combined with higher pH (5.3 vs. 3.9)): capable of enhancing resistance to isobutanol

**Q.** Which “rise in ethanol output” value ([1]; 50 mM K—Pi added to 1×YSC, 300 g/L glucose, initial OD600 20-30, vs unmodified medium) does the source give for `O=P([O-])(O)O.[K+]` [K—Pi, potassium phosphate monobasic] here?
**A.** > 50%

**Q.** And the final ethanol titer ([1]; 50 mM K—Pi, 4-day culture, 300 g/L glucose)?
**A.** ~140 g/L

**Q.** What about the “effect on ethanol output among additives screened” value [1] of the same molecule?
**A.** largest improvement

**Q.** What about the “specific ethanol productivity (rate normalized by mean live population)” value ([1]; elevated K—Pi vs unmodified medium) of the same molecule?
**A.** remained unchanged

**Q.** What about the additional yeast biomass ([1]; high K—Pi vs unmodified medium) of the same molecule?
**A.** ~25%

**Q.** And the “ethanol output titers (near the molar conversion limit)” value [2]?
**A.** ~150 g/L

**Q.** And the “counteraction of the ethanol-mediated pH drop” value (Strain BY4743)?
**A.** not capable of counteracting

**Q.** What about the “increase in ethanol productivity” value (H131-A3-AL^CS) of the same molecule?
**A.** ~70%

**Q.** What about the “increase in ethanol titer” value (H131-A3-AL^CS) of the same molecule?
**A.** ~70%

**Q.** What about the “survival after ethanol shock” value (strain FY4/5 (S288C); 10-20% ethanol, 300 g/L glucose, 50 mM K—Pi vs unmodified medium) of the same molecule?
**A.** survival was indeed enhanced

**Q.** And the “survival after isobutanol shock” value (strain FY4/5 (S288C); steps of isobutanol, 300 g/L glucose, elevated K—Pi)?
**A.** reduced rate of survival

**Q.** What about the “viability after isopropanol shock” value (strain FY4/5 (S288C); steps of isopropanol, 300 g/L glucose, K—Pi supplementation) of the same molecule?
**A.** viability was similarly enhanced

**Q.** Which “effect on ethanol output among additives screened” value [1] does the source give for `O=P([O-])(O)O.[Na+]` [Na—Pi, monosodium phosphate] here?
**A.** improves ethanol titer over NaCl

**Q.** For `CCO` [ethanol], which “effect on intracellular pH” value (Strain BY4743; shocks of increasing ethanol concentration) is on record?
**A.** decreased intracellular pH in a dose-dependent fashion

**Q.** For `OCc1ccco1` [furfuryl alcohol], which “tolerance by yeast compared to furfural” value (yeast) is on record?
**A.** much better tolerated

B1: Cellulamonas fimi Eng (cenA): endoglucanase expressed in S. cerevisiae (protein, UniProt P07984 32-449, looked up)
Endoglucanase A: APGCRVDYAVTNQWPGGFGANVTITNLGDPVSSWKLDWTYTAGQRIQQLWNGTASTNGGQVSVTSLPWNGSIPTGGTASFGFNGSWAGSNPTPASFSLNGTTCTGTVPTTSPTPTPTPTTPTPTPTPTPTPTPTVTPQPTSGFYVDPTTQGYRAWQAASGTDKALLEKIALTPQAYWVGNWADASHAQAEVADYTGRAVAAGKTPMLVVYAIPGRDCGSHSGGGVSESEYARWVDTVAQGIKGNPIVILEPDALAQLGDCSGQGDRVGFLKYAAKSLTLKGARVYIDAGHAKWLSVDTPVNRLNQVGFEYAVGFALNTSNYQTTADSKAYGQQISQRLGGKKFVIDTSRNGNGSNGEWCNPRGRALGERPVAVNDGSGLDALLWVKLPGESDGACNGGPAAGQWWQEIALEMARNARW
**Q.** For B1, which “activity measured per L culture broth” value [3] is on record?
**A.** 293 U/L (low viscosity

B2: Cellulomonas fimi cex: CBHI group cellulase expressed in S. cerevisiae (protein, UniProt P07986 42-484, looked up)
Exoglucanase/xylanase: ATTLKEAADGAGRDFGFALDPNRLSEAQYKAIADSEFNLVVAENAMKWDATEPSQNSFSFGAGDRVASYAADTGKELYGHTLVWHSQLPDWAKNLNGSAFESAMVNHVTKVADHFEGKVASWDVVNEAFADGDGPPQDSAFQQKLGNGYIETAFRAARAADPTAKLCINDYNVEGINAKSNSLYDLVKDFKARGVPLDCVGFQSHLIVGQVPGDFRQNLQRFADLGVDVRITELDIRMRTPSDATKLATQAADYKKVVQACMQVTRCQGVTVWGITDKYSWVPDVFPGEGAALVWDASYAKKPAYAAVMEAFGASPTPTPTTPTPTPTTPTPTPTSGPAGCQVLWGVNQWNTGFTANVTVKNTSSAPVDGWTLTFSFPSGQQVTQAWSSTVTQSGSAVTVRNAPWNGSIPAGGTAQFGFNGSHTGTNAAPTAFSLNGTPCTVG
**Q.** Which “activity measured per L culture broth” value ([4]; PNPC) does the source give for B2 here?
**A.** 8 U/L,

**Q.** What about the “activity per dry cell weight” value ([4]; PNPC) of the same molecule?
**A.** ~1.0 U/g DCW (PNPC)

**Q.** And the Specific activity [4]?
**A.** 3 U/mg

B3: Cellulomonas fimi Exg (cex): CBHI group cellulase expressed in S. cerevisiae (protein, UniProt P07986 42-484, looked up)
Exoglucanase/xylanase: B2 Exoglucanase/xylanase
**Q.** For B3, which “activity measured per L culture broth” value ([4]; PNPC) is on record?
**A.** 45 U/L (PNPC)

**Q.** And the Specific activity [4]?
**A.** 3.6 (PNPC) U/mg
